# Measured values as given in patent US20240083861A1, “HSD17B13 INHIBITORS AND USES THEREOF” (FL2022-001, Inc., priority 2020, published 2024).
# Target: T1, Recombinant human HSD17B13 enzyme (Homo sapiens, UniProt Q7Z5P4)
# T1 sequence (Q7Z5P4 20-300): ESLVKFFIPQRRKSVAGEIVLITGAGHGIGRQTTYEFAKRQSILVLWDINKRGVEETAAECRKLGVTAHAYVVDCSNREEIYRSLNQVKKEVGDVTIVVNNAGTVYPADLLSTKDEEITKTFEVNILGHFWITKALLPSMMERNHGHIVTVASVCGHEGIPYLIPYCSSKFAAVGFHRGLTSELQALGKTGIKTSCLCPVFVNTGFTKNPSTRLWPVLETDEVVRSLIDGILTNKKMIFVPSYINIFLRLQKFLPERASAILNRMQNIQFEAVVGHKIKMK
# Test: HSD17b13 NAD(P)H-Glo biochemical assay
# Settings: 50 uM estradiol, 1 mM NAD+, NAD(P)H-Glo luminescence; read-out: HSD17β13 IC50
# In short: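 Recombinant human HSD17B13 in 20 mM Tris pH7.4 with 0.002% Tween-20 and 0.02% BSA was preincubated with inhibitor for 20 minutes at RT. The reaction ran 3 hours at 37° C with 50 uM estradiol and 1 mM NAD+ (final). NADH formed was detected by NAD(P)H-Glo luminescence after 1 hour at RT.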
row,Structure (SMILES),IC50 [nM]
1,"Cc1cc(N(C)C2CCOCC2)cc2c1c(-c1cc(C(F)(F)F)c(F)c(O)c1F)nn2C [Compound 9.137, 3-(1,4-Dimethyl-6-(methyl(tetrahydro-2H-pyran-4-yl)amino)-1H-indazol-3-yl)-2,6-difluoro-5-(trifluoromethyl)phenol]",100 to 1000
2,"CS(=O)(=O)N1CCN(c2ncc3c(-c4cc(O)c(F)c(C(F)(F)F)c4)n[nH]c3n2)CC1 [Compound 10, 2-Fluoro-5-(6-(4-(methylsulfonyl)piperazin-1-yl)-1H-pyrazolo[3,4-d]pyrimidin-3-yl)-3-(trifluoromethyl)phenol]",100 to 1000
3,"Oc1cc(-c2n[nH]c3nc(N4CC5(CCOCC5)C4)ncc23)cc(C(F)(F)F)c1F [Compound 10.01, 5-(6-(7-Oxa-2-azaspiro[3.5]nonan-2-yl)-1H-pyrazolo[3,4-d]pyrimidin-3-yl)-2-fluoro-3-(trifluoromethyl)phenol]",100 to 1000
4,"CS(=O)(=O)N1CCN(c2ccc3c(-c4cc(O)c(F)c(C(F)(F)F)c4)n[nH]c3n2)CC1 [Compound 10.03, 2-Fluoro-5-(6-(4-(methylsulfonyl)piperazin-1-yl)-1H-pyrazolo[3,4-b]pyridin-3-yl)-3-(trifluoromethyl)phenol]",100 to 1000
5,"CS(=O)(=O)N1CCN(c2cnc3c(-c4cc(O)c(F)c(C(F)(F)F)c4)n[nH]c3n2)CC1 [Compound 10.04, 2-Fluoro-5-(6-(4-(methylsulfonyl)piperazin-1-yl)-1H-pyrazolo[3,4-b]pyrazin-3-yl)-3-(trifluoromethyl)phenol]",100 to 1000
6,"Oc1cc(-c2n[nH]c3nc(N4CC5(CCOCC5)C4)cnc23)cc(C(F)(F)F)c1F [Compound 10.06, 5-(6-(7-Oxa-2-azaspiro[3.5]nonan-2-yl)-1H-pyrazolo[3,4-b]pyrazin-3-yl)-2-fluoro-3-(trifluoromethyl)phenol]",100 to 1000
7,"CS(=O)(=O)N1CCN(c2ccc3c(-c4cc(C(F)(F)F)cc(O)c4F)n[nH]c3c2)CC1 [Compound 11, 2-Fluoro-3-(6-(4-(methylsulfonyl)piperazin-1-yl)-1H-indazol-3-yl)-5-(trifluoromethyl)phenol]",1000 to 30000
8,"CS(=O)(=O)N1CCN(c2cc3[nH]nc(-c4cc(C(F)(F)F)cc(O)c4F)c3cn2)CC1 [Compound 11.02, 2-Fluoro-3-(6-(4-(methylsulfonyl)piperazin-1-yl)-1H-pyrazolo[4,3-c]pyridin-3-yl)-5-(trifluoromethyl)phenol]",100 to 1000
9,"Cn1nc(-c2cc(C(F)(F)F)c(F)c(O)c2F)c2ncc(N3CCN(S(C)(=O)=O)CC3)nc21 [Compound 12, 2,6-Difluoro-3-(1-methyl-6-(4-(methylsulfonyl)piperazin-1-yl)-1H-pyrazolo[3,4-b]pyrazin-3-yl)-5-(trifluoromethyl)phenol]",100 to 1000

# Continued, values first:
row,IC50 [nM],Structure (SMILES)
1,< 100,"Cn1nc(-c2cc(C(F)(F)F)c(F)c(O)c2F)c2cnc(N3CCS(=O)(=O)CC3C3CC3)cc21 (centres unmarked) [Compound 9.126, 3-Cyclopropyl-4-(3-(2,4-difluoro-3-hydroxy-5-(trifluoromethyl)phenyl)-1-methyl-1H-pyrazolo[4,3-c]pyridin-6-yl)thiomorpholine 1,1-dioxide]"
2,100 to 1000,"CN(c1cc(Cl)c2c(-c3cc(C(F)(F)F)c(F)c(O)c3F)nn(C)c2c1)C1CCOCC1 [Compound 9.127, 3-(4-Chloro-1-methyl-6-(methyl(tetrahydro-2H-pyran-4-yl)amino)-1H-indazol-3-yl)-2,6-difluoro-5-(trifluoromethyl)phenol]"
3,< 100,"CN1CCN(c2cc3c(cn2)c(-c2cc(C(F)(F)F)c(F)c(O)c2F)nn3C)C(C2CCOCC2)C1 (centres unmarked) [Compound 9.128, 2,6-Difluoro-3-(1-methyl-6-(4-methyl-2-(tetrahydro-2H-pyran-4-yl)piperazin-1-yl)-1H-pyrazolo[4,3-c]pyridin-3-yl)-5-(trifluoromethyl)phenol]"
4,< 100,"Cn1nc(-c2cc(C(F)(F)F)c(F)c(O)c2F)c2cnc(N(C3CCOCC3)C3CC3)cc21 [Compound 9.129, 3-(6-(Cyclopropyl(tetrahydro-2H-pyran-4-yl)amino)-1-methyl-1H-pyrazolo[4,3-c]pyridin-3-yl)-2,6-difluoro-5-(trifluoromethyl)phenol]"
5,100 to 1000,"Cc1c(N(C)C2CCOCC2)ncc2c(-c3cc(C(F)(F)F)c(F)c(O)c3F)nn(C)c12 [Compound 9.130, 3-(1,7-Dimethyl-6-(methyl(tetrahydro-2H-pyran-4-yl)amino)-1H-pyrazolo[4,3-c]pyridin-3-yl)-2,6-difluoro-5-(trifluoromethyl)phenol]"
6,< 100,"Cn1nc(-c2cc(C(F)(F)F)c(F)c(O)c2F)c2cnc(N(Cc3cccnc3)C3CCOCC3)cc21 [Compound 9.131, 2,6-Difluoro-3-(1-methyl-6-((pyridin-3-ylmethyl)(tetrahydro-2H-pyran-4-yl)amino)-1H-pyrazolo[4,3-c]pyridin-3-yl)-5-(trifluoromethyl)phenol]"
7,< 100,"Cn1nc(-c2cc(C(F)(F)F)c(F)c(O)c2F)c2cnc(N3CCOC4(CCCC4)C3)cc21 [Compound 9.132, 2,6-Difluoro-3-(1-methyl-6-(6-oxa-9-azaspiro[4.5]decan-9-yl)-1H-pyrazolo[4,3-c]pyridin-3-yl)-5-(trifluoromethyl)phenol]"
8,< 100,"Cn1nc(-c2cc(C(F)(F)F)c(F)c(O)c2F)c2cnc(N3CCOC(C4CCOCC4)C3)cc21 (centres unmarked) [Compound 9.133, 2,6-Difluoro-3-(1-methyl-6-(2-(tetrahydro-2H-pyran-4-yl)morpholino)-1H-pyrazolo[4,3-c]pyridin-3-yl)-5-(trifluoromethyl)phenol]"
9,< 100,"Cn1nc(-c2cc(C(F)(F)F)c(F)c(O)c2F)c2cnc(N3CCN(S(C)(=O)=O)C4(CCC4)C3)cc21 [Compound 9.134, 2,6-Difluoro-3-(1-methyl-6-(5-(methylsulfonyl)-5,8-diazaspiro[3.5]nonan-8-yl)-1H-pyrazolo[4,3-c]pyridin-3-yl)-5-(trifluoromethyl)phenol]"
10,< 100,"Cn1nc(-c2cc(C(F)(F)F)c(F)c(O)c2F)c2cnc(N3CCO[C@@H](c4ccccc4)C3)cc21 [Compound 9.135, (S)-2,6-Difluoro-3-(1-methyl-6-(2-phenylmorpholino)-1H-pyrazolo[4,3-c]pyridin-3-yl)-5-(trifluoromethyl)phenol]"
11,< 100,"CN(c1ncc2c(-c3cc(C(F)(F)F)c(F)c(O)c3F)nn(C)c2c1F)C1CCOCC1 [Compound 9.136, 2,6-Difluoro-3-(7-fluoro-1-methyl-6-(methyl(tetrahydro-2H-pyran-4-yl)amino)-1H-pyrazolo[4,3-c]pyridin-3-yl)-5-(trifluoromethyl)phenol]"
12,< 100,"Cn1nc(-c2cc(C(F)(F)F)c(F)c(O)c2F)c2nnc(N3CCOCC34CC4)cc21 [Compound 9.138, 2,6-Difluoro-3-(1-methyl-6-(7-oxa-4-azaspiro[2.5]octan-4-yl)-1H-pyrazolo[4,3-c]pyridazin-3-yl)-5-(trifluoromethyl)phenol]"
13,< 100,"CC1(C#N)CN(c2ncc3c(-c4cc(O)c(F)c(C(F)(F)F)c4)n[nH]c3n2)C1 [Compound 10.02, 1-(3-(4-Fluoro-3-hydroxy-5-(trifluoromethyl)phenyl)-1H-pyrazolo[3,4-d]pyrimidin-6-yl)-3-methylazetidine-3-carbonitrile]"
14,< 100,"CS(=O)(=O)N1CCN(c2cnc3c(-c4cc(O)c(F)c(C(F)(F)F)c4)nn(C4CCCCO4)c3n2)CC1 (centres unmarked) [Compound 10.05, 2-Fluoro-5-(6-(4-(methylsulfonyl)piperazin-1-yl)-1-(tetrahydro-2H-pyran-2-yl)-1H-pyrazolo[3,4-b]pyrazin-3-yl)-3-(trifluoromethyl)phenol]"
15,< 100,"Oc1c(F)c(-c2n[nH]c3cc(N4CCOCC45CC5)ncc23)cc(C(F)(F)F)c1F [Compound 11.03, 3-(6-(7-Oxa-4-azaspiro[2.5]octan-4-yl)-1H-pyrazolo[4,3-c]pyridin-3-yl)-2,6-difluoro-5-(trifluoromethyl)phenol]"
16,< 100,"CN(c1cc2[nH]nc(-c3cc(C(F)(F)F)c(F)c(O)c3F)c2cn1)C1CCOCC1 [Compound 11.04, 2,6-Difluoro-3-(6-(methyl(tetrahydro-2H-pyran-4-yl)amino)-1H-pyrazolo[4,3-c]pyridin-3-yl)-5-(trifluoromethyl)phenol]"

# Same assay, conditions: at 10 uM compound; read-out: HSD17β13 % inhibition at 10 uM
row,inhibition at 10 µM [%],Structure (SMILES)
1,25,"Cn1nc(-c2cc(C(F)(F)F)c(F)c(O)c2F)c2ccc(NC3COC3)nc21 [Compound 9.139, 2,6-Difluoro-3-(1-methyl-6-(oxetan-3-ylamino)-1H-pyrazolo[3,4-b]pyridin-3-yl)-5-(trifluoromethyl)phenol]"
2,35,"Cn1nc(-c2cc(C(F)(F)F)c(F)c(O)c2F)c2cnc(N3CCCC34COC4)cc21 [Compound 9.140, 2,6-Difluoro-3-(1-methyl-6-(2-oxa-5-azaspiro[3.4]octan-5-yl)-1H-pyrazolo[4,3-c]pyridin-3-yl)-5-(trifluoromethyl)phenol]"
3,20,"CN(c1cc2c(nn1)c(-c1cc(C(F)(F)F)c(F)c(O)c1O)nn2C)C1CCOCC1 [Compound 9.141, 3-Fluoro-6-(1-methyl-6-(methyl(tetrahydro-2H-pyran-4-yl)amino)-1H-pyrazolo[4,3-c]pyridazin-3-yl)-4-(trifluoromethyl)benzene-1,2-diol]"

# Same assay, conditions: at 30 uM compound; read-out: HSD17β13 % inhibition at 30 uM
row,inhibition at 30 µM [%],Structure (SMILES)
1,41,"CS(=O)(=O)N1CCN(c2ccc3c(-c4ccc(F)c(O)c4F)n[nH]c3c2)CC1 [Compound 11.01, 2,6-Difluoro-3-(6-(4-(methylsulfonyl)piperazin-1-yl)-1H-indazol-3-yl)phenol]"
